From publication PMC11507932, “Comparative Analysis on Polyphenolic Composition of Different Olive Mill Wastewater and Related Extra Virgin Olive Oil Extracts and Evaluation of Nutraceutical Properties by Cell-Based Studies” (Foods, 2024)
Marks after values point to notes of the source that are not given here.

Tests used:
[1] = tested on: co-culture of Caco-2 and HT29-MTX cell lines; assay: Intestinal permeability assay, Caco-2/HT29-MTX co-culture, LC-MS quantification; assay type: in vitro ADME, human; conditions: for calculated concentration, basolateral side / calculated concentration, apical side: OMWW B1 sample, mean ± SD (n = 3); for calculated concentration, apical side: apical (100% reference); for Mean Permeation Rate (±SD) at 240 min: polyphenol within OMWW B1 sample (500 µg/mL), apical to basolateral
Method: The instrumental setup consisted of an Agilent (Santa Clara, CA, USA) 1290 UHPLC system, which included a binary pump, a column oven maintained at 40 °C, and a temperature-controlled autosampler. This system was connected to a Sciex (Concord, ON, Canada) QTRAP 6500+ mass spectrometer operating as a triple quadrupole, equipped with an IonDrive™ Turbo V source performing electrospray ionization (ESI). […] The instrument control and data acquisition were performed using Sciex Analyst® version 1.7 software and MultiquantTM software version 3.0.3. Data analysis was carried out using Microsoft 365® Excel software (Albuquerque, NM, USA) and GraphPad (San Diego, CA, USA) Prism version 9.0.2. The mass spectrometry selected reaction monitoring (SRM) method was operated in negative ion mode. For each compound, declustering potential (DP), collision energy (CE), and collision exit potential (CxP) were optimized, and three transitions were considered for analysis. One transition was used for quantification (Q), while the other two were used as qualifiers (q). The transition list and additional operational parameters are already reported. A stock solution of each standard compound, including the internal standard, was prepared in MeOH at a concentration of 100 μg/mL and stored at −20 °C. Calibration curves were freshly prepared in pure LC-MS water. […] [34]. The experiments were performed 21 days after seeding the cells in 12 well plates. During this period, the transepithelial electrical resistance (TEER) was monitored to evaluate the cell monolayer integrity. On the last day, cell monolayers were pre-equilibrated with fresh HBSS (pH 7.4) at 37 °C for 30 min. […] At the same time, the TEER was evaluated, using an EVOM Epithelial Volthometer Instrument equipped with a chopstick electrode (World Precision Instruments, Sarasota, FL, USA). After each sampling time, the basolateral side was replaced with the same HBSS volume. Samples were conserved at −20 °C for subsequent LC/ESI-MS analysis, according to Section 2.5.

[2] = tested on: co-culture of Caco-2 and HT29-MTX cell lines; parameters: method as in PMID 37446813; conditions: tyrosol alone, same model; cited from earlier work
[3] = ABTS radical cation scavenging assay; assay type: biochemical; conditions: mean ± standard error (n = 3); 5 min, rt
Method: The ABTS free radical scavenging activity of samples was evaluated by radical cation colorimetric assay in accordance with Cuffaro et al.. Briefly, the ABTS solution (7 mM of aqueous solution of ABTS with 2.45 mM potassium persulfate in a 1:1 ratio) was incubated for 12 h in the dark at rt. Then, the solution was diluted with EtOH to obtain an absorbance of 0.7 at 750 nm. A total of 10 μL of sample solution (1 mg/mL to 0.01 mg/mL) in EtOH was mixed with 180 μL of ABTS solution and the solution was incubated for 5 min at rt. The final absorbance was read at 734 nm in a Molecular Devices […] (200-1000 nm) UV/Vis spectrophotometer. The % scavenging ability was calculated as follows:% scavenging ability = ([…] = ABTS solution absorbance Abssample = ABTS solution containing the test compound absorbance. […] Trolox® was employed as positive control and was treated under the same conditions as the samples. All experiments were performed in triplicate.

[4] = DPPH free radical scavenging assay; assay type: biochemical; conditions: mean ± standard error (n = 3); 45 min, rt
Method: The antiradical activity of OMWW and EVOO samples was assessed by the DPPH free radical scavenging, as reported by Cuffaro et al.. Briefly, 100 μL of DPPH MeOH solution (40.0 μg/mL) was added to 100 μL of the sample solution in MeOH (1 mg/mL to 0.01 mg/mL), and the resulting solution was incubated for 45 min at rt and in the dark. The absorbance was read at 517 nm in a Molecular Devices […] (200-1000 nm) UV/Vis spectrophotometer. Trolox® was the positive control and was treated under the same conditions as the samples. The percent of antioxidant activity (%AA) was calculated according to the following equation:%AA = ([…] = DPPH solution absorbance Abssample = DPPH solution containing the test compound absorbance […] All experiments were performed in triplicate.

[5] = Superoxide radical scavenging assay (NBT reduction); assay type: biochemical; conditions: mean ± SD (n = 3)
Method: The superoxide radical (O2^−) scavenging capacity was spectrophotometrically evaluated, in accordance with Gomes et al.. Absorbance was read at 560 nm for 6 min at 37 °C in a Synergy HT Microplate Reader. The results were expressed as IC50, of the reduction in NBT to a purple-colored diformazan by the reaction with O2.

[6] = Hypochlorous acid scavenging assay (DHR oxidation); assay type: biochemical; conditions: mean ± SD (n = 3)
Method: The uptake capacity of hypochlorous acid (HOCl^−) was determined by monitoring the effect of OMWW extracts in the HOCl^− induced oxidation of dihydrorhodamine (DHR) to rhodamine, as reported by Gomes et al.. The fluorescence was read at 37 °C for 5 min, at wavelengths of 485 ± 20 nm and 528 ± 20 nm. The results were expressed as the inhibition, in IC50, of HOCl^− induced DHR oxidation.

SMILES	calculated concentration, basolateral side ([1]; 30 min)	calculated concentration, basolateral side ([1]; 60 min)	calculated concentration, basolateral side ([1]; 120 min)	calculated concentration, basolateral side ([1]; 180 min)	calculated concentration, basolateral side ([1]; 240 min)	calculated concentration, apical side [1]	Mean Permeation Rate (±SD) at 240 min ([1]; 240 min) [%]	permeation (release) at 240 min [2] [%]	Mean Permeation Rate (±SD) at 240 min ([1]; 240 min, listed as hydroxytyrosol) [%]	ABTS IC50 [3]	DPPH IC50 [4]	Mean Permeation Rate (±SD) at 240 min ([1]; 240 min, listed as caffeic acid) [%]	O2^− scavenging IC50 [5]	HOCl^− scavenging IC50 [6]
OCCc1ccc(O)cc1 [Tyrosol]	155,50 ± 6,36 ng/mL	224,50 ± 21,92 ng/mL	259,50 ± 47,38 ng/mL	256,50 ± 13,44 ng/mL	314,00 ± 33,94 ng/mL	587,50 ± 234,05 ng/mL	59 ± 29	78	–	–	–	–	–	–
OCCc1ccc(O)c(O)c1 [Hydroxytyrosol]	7,42 ± 5,35 ng/mL	9,12 ± 5,78 ng/mL	15,75 ± 5,02 ng/mL	19,40 ± 2,55 ng/mL	15,20 ± 1,98 ng/mL	45,30 ± 0,85 ng/mL	34 ± 5	–	34	–	–	–	–	–
Cc1c(C)c2c(c(C)c1O)CCC(C)(C(=O)O)O2 (stereo not drawn) [Trolox]	–	–	–	–	–	–	–	–	–	0.003 ± 0.0004 ^i mg/mL	0.007 ± 0.001 ^h mg/mL	–	–	–
O=C(O)/C=C/c1ccc(O)c(O)c1 [Caffeic acid]	0,31 ± 0,10 ng/mL	0,40 ± 0,25 ng/mL	1,29 ± 0,31 ng/mL	2,00 ± 0,01 ng/mL	1,89 ± 0,42 ng/mL	7,31 ± 0,74 ng/mL	26 ± 3	–	–	–	–	26	–	–
O.Oc1cc(O)c2c(c1)O[C@H](c1ccc(O)c(O)c1)[C@@H](O)C2 [Catechin]	–	–	–	–	–	–	–	–	–	–	–	–	18.01 ± 0.34 ^c,d μg/mL	0.20 ± 0.01 ^b μg/mL
O=C(O)c1cc(O)c(O)c(O)c1 [Gallic acid]	–	–	–	–	–	–	–	–	–	–	–	–	6.34 ± 0.21 ^d μg/mL	2.60 ± 0.05 ^b μg/mL
